“And” between values parts separate entries of the source, which are not always exact repeats. Identical values can stand only once. “Also recorded” adds a separate entry of the source.
What was measured:
[1] = tested on: PSMA messenger RNA in LNCaP prostate cancer cell line; details: LNCaP cells after exposure to DHT; cited from earlier work
[2] = target: T1, ODC (Homo sapiens, UniProt P11926); details: concentrations from 0.6 μM to 80 μM; three separate studies; cited from earlier work
T1 sequence (P11926 1-461): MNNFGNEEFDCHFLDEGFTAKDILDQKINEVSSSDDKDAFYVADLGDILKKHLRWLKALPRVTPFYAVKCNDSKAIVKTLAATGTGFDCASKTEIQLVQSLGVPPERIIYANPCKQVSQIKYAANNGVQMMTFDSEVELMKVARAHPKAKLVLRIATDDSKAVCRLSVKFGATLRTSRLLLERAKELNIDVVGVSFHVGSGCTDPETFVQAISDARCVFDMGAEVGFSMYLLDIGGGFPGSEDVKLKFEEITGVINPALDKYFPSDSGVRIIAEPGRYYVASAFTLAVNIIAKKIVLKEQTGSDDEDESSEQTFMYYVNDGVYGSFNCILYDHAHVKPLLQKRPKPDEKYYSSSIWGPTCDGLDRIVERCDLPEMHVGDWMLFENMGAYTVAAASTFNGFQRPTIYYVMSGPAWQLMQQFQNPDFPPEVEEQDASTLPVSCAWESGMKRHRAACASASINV

[3] = tested on: PSA; experiment: Serum PSA in men taking oral DFMO; format: in vivo, human
Description: (§1) This protocol was approved by the investigational review board of the University of California Irvine and the Long Beach Veterans Administration Medical Center. Men between the ages of 50 and 85, who were undergoing a trans-rectal prostate needle biopsy for either an elevated PSA or abnormal rectal exam, signed a written consent to undergo four additional core needle biopsies of the peripheral zone at the time of their, routine extant biopsy. The additional four biopsies were immediately frozen liquid nitrogen and stored in the minus 70-degree freezer. The […] biopsy was sent to Pathology for routine analysis. […] Patients were monitored for side effects using questionnaires and interview techniques. Coagulation parameters were carefully assessed prior to surgery. In the operating room just prior to the surgical procedure four trans-rectal core biopsies of the peripheral zone were taken and frozen. The pre and post DFMO specimens were sent together to Arizona on dry ice for histology and polyamine analysis. Radical prostatectomy specimens were staged according to the TMN updated 1997 staging system (American Joint Committee on Cancer 1997).

[4] = tested on: prostate tumor; details: rat, in vivo, ip; cited from earlier work
[5] = tested on: matrilysin expression in LNCaP human prostate cancer derived cells; experiment: IL-1β-induced matrilysin expression in LNCaP cells; format: cell-based
Description: As indicated earlier, DFMO acts late in the tumor promotion stage of epithelial carcinogenesis.

[6] = tested on: human prostate polyamine levels and ODC activity; details: cited from earlier work
[7] = Side effects and coagulation parameters in men taking oral DFMO; format: in vivo, human
Description: as §1

[8] = target: T2, prostatic ODC (Rattus norvegicus, UniProt P09057); details: cited from earlier work
T2 construct: from tissue; host or cells: rat prostate (animals treated in vivo with DFMO)
T2 sequence (P09057 1-461): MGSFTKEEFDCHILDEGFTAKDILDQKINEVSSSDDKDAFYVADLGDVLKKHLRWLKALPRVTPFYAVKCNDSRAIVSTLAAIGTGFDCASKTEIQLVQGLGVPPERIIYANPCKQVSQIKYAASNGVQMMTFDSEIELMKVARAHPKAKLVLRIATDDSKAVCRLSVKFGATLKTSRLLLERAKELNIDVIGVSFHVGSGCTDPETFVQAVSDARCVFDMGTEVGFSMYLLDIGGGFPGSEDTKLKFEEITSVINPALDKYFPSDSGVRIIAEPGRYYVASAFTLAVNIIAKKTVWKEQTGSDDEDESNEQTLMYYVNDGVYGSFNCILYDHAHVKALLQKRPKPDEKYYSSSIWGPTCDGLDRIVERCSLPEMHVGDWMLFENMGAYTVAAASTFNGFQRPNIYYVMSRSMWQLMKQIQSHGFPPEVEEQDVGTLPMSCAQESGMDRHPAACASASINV

[9] = tested on: polyamines in rat prostate; details: two weeks of 100 mg/kg DFMO, cited from earlier work
[10] = tested on: mouse epidermis; details: topically applied five percent solution of DFMO; cited from earlier work
[11] = tested on: cutaneous spermine; details: ten percent DFMO cream; ten patients suffering from psoriasis; cited from earlier work
[12] = tested on: tumors harboring Ki-ras mutations; details: AOM-treated rats; reduced from 90%; cited from earlier work
[13] = tested on: polyamines (putrescine, spermidine, spermine) in the human prostate; experiment: Prostate core biopsy polyamine content before and after 28 days of oral DFMO; format: in vivo; details: oral DFMO 0.5 gm/m^2 for 28 days
Description: This protocol was approved by the investigational review board of the University of California Irvine and the Long Beach Veterans Administration Medical Center. Men between the ages of 50 and 85, who were undergoing a trans-rectal prostate needle biopsy for either an elevated PSA or abnormal rectal exam, signed a written consent to undergo four additional core needle biopsies of the peripheral zone at the time of their, routine extant biopsy. The additional four biopsies were immediately frozen liquid nitrogen and stored in the minus 70-degree freezer. The […] biopsy was sent to Pathology for routine analysis. […] Patients were monitored for side effects using questionnaires and interview techniques. Coagulation parameters were carefully assessed prior to surgery. In the operating room just prior to the surgical procedure four trans-rectal core biopsies of the peripheral zone were taken and frozen. The pre and post DFMO specimens were sent together to Arizona on dry ice for histology and polyamine analysis. Radical prostatectomy specimens were staged according to the TMN updated 1997 staging system (American Joint Committee on Cancer 1997). To determine prostate core polyamine contents, cores were first thawed, washed in phosphate buffered saline (PBS) and weighted. Samples were then minced in 0.2 N perchloric acid and sonicated to disrupt cellular material. Samples were centrifuged at 2,000×g for 5 minutes to separate acid soluble and insoluble fractions. The acid soluble fraction was evaluated for polyamine contents, using reverse-phase, ion-pared high performance liquid chromatography (PHLC) methods, as described elsewhere ([…] et al. 1994; […] et al 1994; […] et al. 1998). Briefly, polyamines are separated on a C18 B Ondapak column, derivatized with […] separation and detected by absorption of the derivatized material at 750 nm. Mean, median, and range for polyamine levels are reported in nmol/mg protein. The limit of detection of our method is 0.01 nmol/mg. Histological Changes were assessed by bright field microscopy methods. Pre- and post DFMO polyamine values were compared using the Wilcoxon matched-pairs signed rank test. Thus, for each patient we were able to take into account both the magnitude and the direction of changes in polyamines due to DFMO.

[14] = tested on: prostate cancer; details: one year of Proscar; 1 of 25 men with no treatment; p=0.025; cited from earlier work
[15] = tested on: prostate cancer; details: oral fenretinide; 22 men at high risk; trial closed early; cited from earlier work
[16] = two weeks of DFMO 0.5 gm/m^2 orally
[17] = oral DFMO 0.5 gm/m^2, about 28 days

C[C@]12CCC(=O)C[C@@H]1CC[C@@H]1[C@@H]2CC[C@]2(C)[C@@H](O)CC[C@@H]12 [5-α-dihydroxytestosterone]
down-regulation of PSMA mRNA [1]: 8-10 fold

NCCC[C@@](N)(C(=O)O)C(F)F [D-DFMO]
inhibition of ODC activity [2]: inhibitory

NCCC[C@](N)(C(=O)O)C(F)F [DFMO, alpha-difluoromethylornithine]
PSA change on DFMO, patients with malignant pathology ([3]; five patients, increase in patients 3,8,9): increased in 3 of 5
PSA change on DFMO, patients with final benign pathology ([3]; four patients (1,4,5,7), pre-biopsy or pre-DFMO PSA vs PSA on DFMO): decreased in each patient
Pre-op PSA ([3]; individual patients 1-9, drawn while on DFMO): 3.7 ng/ml and 7.5 ng/ml and 2.5 ng/ml and 1.4 ng/ml and 5 ng/ml and 2.3 ng/ml and 6.8 ng/ml and 35.5 ng/ml and 8.2* ng/ml
systemic toxicity [4]: no systemic toxicity
interleukin-1β (IL-1β)-induced matrilysin expression [5]: suppresses
inhibition of ODC activity [2]: inhibitory
toxicity ([6]; fourteen men completed two weeks of DFMO): no toxicity
ODC activity, DFMO vs placebo ([6]; two weeks of DFMO 0.5 gm/m^2): no differences
mean putrescine level in prostate cores ([6]; two weeks of DFMO 0.5 gm/m^2, placebo 1.95, p=0.03): 1.43
spermidine level, DFMO vs placebo [6, 16]: no differences; also recorded: failed to detect any reduction
spermine level, DFMO vs placebo [6, 16]: no differences; also recorded: failed to detect any reduction
bleeding time prior to surgery [7, 17]: not altered
change in platelet counts or protime [7, 17]: no clinically significant change
men reporting side effects ([7]; oral DFMO 0.5 gm/m^2, average 28.2 days, grade 0 to 1): four men
prostatic ODC reduction compared to control ([8]; by 24 hrs, 100 mg/kg every 12 hrs i.p.): 50%
sustained suppression of prostatic ODC activity, remaining activity ([8]; throughout the two week study): 50 % of baseline activity
putrescine in rat prostate after DFMO ([9]; control 202±37): 4 ± 4 nmol/g
spermine in rat prostate after DFMO ([9]; control 2968±293, no significant reduction): 2741±346
spermidine in rat prostate after DFMO ([9]; control 7334±193): 1188±289
spermine and spermidine levels [10]: not affected
improvement in psoriatic lesions [11]: marginal improvement
reduction of cutaneous spermine levels [11]: sixty-six percent
number of tumors harboring Ki-ras mutations [12]: 36%
range of spermine level after DFMO ([13]; n=9): 3.24 to 25.58 nmol/mg
spermidine average percent decrease from baseline ([13]; n=9, p=0.004): 73.6% and 74%
spermine average decrease from baseline ([13]; n=9, p=0.004): 50.8% and 51%
average level of spermine after DFMO ([13]; n=9, pre-DFMO average 29.14): 14.33 nmol/mg
median level of spermine after DFMO ([13]; n=9, pre-DFMO median 28.85): 17.40 nmol/mg
average level of spermidine after therapy ([13]; n=9, pretreatment average 1.21): 0.32 nmol/mg
median level of spermidine after therapy ([13]; n=9, pretreatment median 0.81): 0.21 nmol/mg
putrescine level after DFMO ([13]; prostate core biopsy, all nine men, detection limit 0.01 nmol/mg): undetectable
putrescine average decrease from baseline ([13]; six men with pre-DFMO putrescine ≧0.01, p=0.031): 97.6% and 98%

NCCC[C@](N)(C(=O)O)C(F)F [L-DFMO]
inhibition of ODC activity [2]: inhibitory

CC(C)(C)NC(=O)[C@H]1CC[C@H]2[C@@H]3CC[C@H]4NC(=O)C=C[C@]4(C)[C@H]3CC[C@]12C [Proscar, finasteride]
men with cancer diagnosed at one year follow up biopsy [14]: 8 of 27

CC1=C(/C=C/C(C)=C/C=C/C(C)=C/C(=O)Nc2ccc(O)cc2)C(C)(C)CCC1 [fenretinide]
men with negative prestudy biopsies who developed malignancy while on study [15]: 8 men

CN1C(C(=O)Nc2ccccn2)=C(O)c2ccccc2S1(=O)=O [piroxicam]
number of tumors harboring Ki-ras mutations [12]: 25%
